Experimental data as given in US20260265238A1, “COMPOUNDS AND PHARMACEUTICAL COMPOSITIONS THAT DEGRADE SWI/SNF-RELATED MATRIX-ASSOCIATED ACTIN-DEPENDENT REGULATOR OF CHROMATIN SUBFAMILY A” (Plexium, Inc., priority 2023, published 2026).

Tests used:
[1] = target: T1, SMARCA2-HiBiT HeLa cells (protein which is expressed from the SMARCA2 gene) (Homo sapiens, UniProt P51531); test: SMARCA2 degradation assay (HiBiT-fusion HeLa cell line, 24 h, luminescence); format: cell-based
T1 construct: protein which is expressed from the SMARCA2 and SMARCA4 genes; host or cells: HeLa (SMARCA2-HiBiT engineered line)
Procedure, shortened: (§1)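 HeLa cells carrying HiBiT-tagged SMARCA2 or SMARCA4 were seeded at 8,000 cells/well, allowed to attach overnight at 37° C., then given compounds in a 10-point dilution series (typically 10 μM to 300 pM) for 24 hours at 37° C. Remaining tagged protein was read by HiBiT lytic luminescence, and DC50s came from dose-response curves.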

[2] = target: T2, SMARCA4-HiBiT HeLa cells (protein which is expressed from the SMARCA4 gene) (Homo sapiens, UniProt P51532); test: SMARCA4 degradation assay (HiBiT-fusion HeLa cell line, 24 h, luminescence); format: cell-based
T2 construct: protein which is expressed from the SMARCA2 and SMARCA4 genes; host or cells: HeLa (SMARCA4-HiBiT engineered line)
Procedure, shortened: as §1

T2 sequence (P51532 whole entry, the tested form may be a part): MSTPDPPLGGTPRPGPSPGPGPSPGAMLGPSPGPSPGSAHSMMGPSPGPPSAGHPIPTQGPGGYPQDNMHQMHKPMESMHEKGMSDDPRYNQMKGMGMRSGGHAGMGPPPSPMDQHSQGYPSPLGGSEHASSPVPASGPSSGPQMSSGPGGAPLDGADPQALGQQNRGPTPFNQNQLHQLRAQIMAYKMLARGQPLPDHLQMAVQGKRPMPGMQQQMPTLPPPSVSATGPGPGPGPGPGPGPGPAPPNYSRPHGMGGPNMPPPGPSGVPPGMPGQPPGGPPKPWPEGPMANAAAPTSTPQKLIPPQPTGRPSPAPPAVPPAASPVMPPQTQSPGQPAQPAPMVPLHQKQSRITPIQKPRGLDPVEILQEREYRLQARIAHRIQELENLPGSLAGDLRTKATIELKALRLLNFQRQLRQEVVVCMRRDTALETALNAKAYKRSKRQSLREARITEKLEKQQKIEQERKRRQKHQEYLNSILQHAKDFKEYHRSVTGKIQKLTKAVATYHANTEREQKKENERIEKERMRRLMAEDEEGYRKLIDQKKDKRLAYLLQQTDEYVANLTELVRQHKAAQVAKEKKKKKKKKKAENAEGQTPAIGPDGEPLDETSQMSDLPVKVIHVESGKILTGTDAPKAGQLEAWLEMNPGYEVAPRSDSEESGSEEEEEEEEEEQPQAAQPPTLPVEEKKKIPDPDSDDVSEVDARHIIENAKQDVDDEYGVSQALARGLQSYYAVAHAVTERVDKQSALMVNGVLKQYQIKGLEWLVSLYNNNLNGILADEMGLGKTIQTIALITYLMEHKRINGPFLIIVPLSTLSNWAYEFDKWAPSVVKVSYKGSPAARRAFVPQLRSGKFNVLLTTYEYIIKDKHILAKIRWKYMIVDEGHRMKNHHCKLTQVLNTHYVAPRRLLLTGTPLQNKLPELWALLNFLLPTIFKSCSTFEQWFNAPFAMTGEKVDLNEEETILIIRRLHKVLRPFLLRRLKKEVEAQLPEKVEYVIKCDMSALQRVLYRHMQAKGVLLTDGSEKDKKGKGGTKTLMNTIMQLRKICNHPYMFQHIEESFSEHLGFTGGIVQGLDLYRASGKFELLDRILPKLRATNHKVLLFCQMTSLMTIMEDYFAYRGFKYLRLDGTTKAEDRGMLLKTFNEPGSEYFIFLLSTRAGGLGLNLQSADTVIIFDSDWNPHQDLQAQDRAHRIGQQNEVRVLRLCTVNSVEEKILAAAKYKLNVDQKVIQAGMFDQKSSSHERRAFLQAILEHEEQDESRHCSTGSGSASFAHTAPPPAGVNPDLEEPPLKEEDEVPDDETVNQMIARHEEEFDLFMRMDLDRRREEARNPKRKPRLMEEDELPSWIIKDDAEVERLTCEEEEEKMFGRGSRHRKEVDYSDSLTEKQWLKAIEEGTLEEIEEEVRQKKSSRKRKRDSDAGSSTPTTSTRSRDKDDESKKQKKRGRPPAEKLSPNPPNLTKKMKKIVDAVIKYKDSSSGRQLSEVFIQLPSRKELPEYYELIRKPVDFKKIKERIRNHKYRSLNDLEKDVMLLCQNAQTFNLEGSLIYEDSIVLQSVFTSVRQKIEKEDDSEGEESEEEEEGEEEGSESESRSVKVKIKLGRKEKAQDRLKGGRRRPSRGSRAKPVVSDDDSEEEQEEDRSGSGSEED
T1 sequence (P51531 whole entry, the tested form may be a part): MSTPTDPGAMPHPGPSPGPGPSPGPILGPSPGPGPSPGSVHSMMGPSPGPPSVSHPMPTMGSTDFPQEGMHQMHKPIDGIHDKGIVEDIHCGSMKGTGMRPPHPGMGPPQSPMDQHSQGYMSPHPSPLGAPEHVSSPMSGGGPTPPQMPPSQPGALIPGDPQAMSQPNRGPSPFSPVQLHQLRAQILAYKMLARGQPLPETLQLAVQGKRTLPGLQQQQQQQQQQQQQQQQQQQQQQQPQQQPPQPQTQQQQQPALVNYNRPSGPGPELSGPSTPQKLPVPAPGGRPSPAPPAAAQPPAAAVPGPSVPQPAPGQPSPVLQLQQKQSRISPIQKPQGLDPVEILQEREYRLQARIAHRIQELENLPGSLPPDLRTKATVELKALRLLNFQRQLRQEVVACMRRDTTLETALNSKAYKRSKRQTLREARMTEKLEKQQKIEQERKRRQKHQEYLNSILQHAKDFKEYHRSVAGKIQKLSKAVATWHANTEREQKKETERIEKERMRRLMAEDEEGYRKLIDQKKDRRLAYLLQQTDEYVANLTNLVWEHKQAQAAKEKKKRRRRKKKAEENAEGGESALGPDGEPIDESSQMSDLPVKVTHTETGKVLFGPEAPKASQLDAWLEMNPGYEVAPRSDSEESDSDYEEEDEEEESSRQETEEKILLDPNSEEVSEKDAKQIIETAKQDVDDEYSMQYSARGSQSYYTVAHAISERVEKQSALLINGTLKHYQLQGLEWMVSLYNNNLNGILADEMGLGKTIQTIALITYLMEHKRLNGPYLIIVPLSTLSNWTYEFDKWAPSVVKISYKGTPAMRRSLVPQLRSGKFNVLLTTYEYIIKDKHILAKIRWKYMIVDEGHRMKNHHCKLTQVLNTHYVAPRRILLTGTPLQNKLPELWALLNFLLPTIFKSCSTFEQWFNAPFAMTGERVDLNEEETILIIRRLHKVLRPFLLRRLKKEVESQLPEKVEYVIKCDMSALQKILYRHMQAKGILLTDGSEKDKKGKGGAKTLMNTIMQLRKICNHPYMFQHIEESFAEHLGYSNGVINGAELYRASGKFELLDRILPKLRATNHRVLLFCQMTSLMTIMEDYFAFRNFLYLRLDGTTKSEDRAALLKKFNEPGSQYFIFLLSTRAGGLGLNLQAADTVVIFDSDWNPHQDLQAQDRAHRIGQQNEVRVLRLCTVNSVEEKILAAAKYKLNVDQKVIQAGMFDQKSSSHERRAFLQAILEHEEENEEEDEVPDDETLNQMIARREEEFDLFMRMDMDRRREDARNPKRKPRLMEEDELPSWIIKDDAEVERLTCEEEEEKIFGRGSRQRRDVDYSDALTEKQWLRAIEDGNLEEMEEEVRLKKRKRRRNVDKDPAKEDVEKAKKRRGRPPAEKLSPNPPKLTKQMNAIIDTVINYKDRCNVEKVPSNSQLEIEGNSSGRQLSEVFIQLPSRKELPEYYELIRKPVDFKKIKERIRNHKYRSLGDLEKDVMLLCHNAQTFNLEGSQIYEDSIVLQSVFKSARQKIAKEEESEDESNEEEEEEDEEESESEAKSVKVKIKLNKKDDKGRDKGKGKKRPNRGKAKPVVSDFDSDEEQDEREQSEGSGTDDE

SMILES	DC50 [1] [nM]	SMARCA2 % Degradation @ 1 μM ([1]; @ 1 μM)	DC50 [2] [nM]	inhibition at 1 µM ([2]; @ 1 μM) [%]	SMARCA2 % Degradation @ 1 μM ([1]; 1 μM)	inhibition at 1 µM ([2]; 1 μM) [%]
CC(C#Cc1nccc(N2C3CCC2CN(c2cc(-c4ccccc4O)nnc2N)C3)n1)NC(=O)c1cc2ncccn2n1 (centres unmarked) [Compound P-97, N-(4-(4-(3-(3-amino-6-(2-hydroxyphenyl)pyridazin-4-yl)-3,8-diazabicyclo[3.2.1]octan-8-yl)pyrimidin-2-yl)but-3-yn-2-yl)pyrazolo|1,5-a|pyrimidine-2-carboxamide]	50 to 500	++ (++=30-70%)	50 to 500	30 to 70		
C[C@@H](O)C#Cc1nccc(N2CCCN(c3cc(-c4ccccc4O)nnc3N)CC2)n1 [Compound P-322, 0-[5-(4-{2-[(R)-3-hydroxy-1-butynyl]-4-pyrimidinyl}-1,4-diazepan-1-yl)-6-amino-3-pyridazinyl]phenol]	50 to 500	++ (++=30-70%)	50 to 500	30 to 70		
Cc1cc(C)n(CC#Cc2nccc(N3CCN(c4cc(-c5ccccc5O)nnc4N)CC[C@H]3C)n2)n1 [Compound P-177, o-{5-[(R)-4-{2-[3-(3,5-dimethyl-1-pyrazolyl)-1-propynyl]-4-pyrimidinyl}-5-methyl-1,4-diazepan-1-yl]-6-amino-3-pyridazinyl}phenol]	50 to 500	++ (++=30-70%)	50 to 500	< 30		
CNCC#Cc1nccc(N2CCCN(c3cc(-c4ccccc4O)nnc3N)CC2)n1 [Compound P-147, 2-(6-amino-5-(4-(2-(3-(methylamino)prop-1-yn-1-yl)pyrimidin-4-yl)-1,4-diazepan-1-yl)pyridazin-3-yl)phenol]	50 to 500	++ (++=30-70%)	50 to 500	30 to 70		
Nc1nnc(-c2ccccc2O)cc1N1CCN(c2ccnc(C#CCNC(=O)c3cc4ccccc4[nH]3)n2)CC1 [Compound P-73, N-(3-(4-(4-(3-amino-6-(2-hydroxyphenyl)pyridazin-4-yl)piperazin-1-yl)pyrimidin-2-yl)prop-2-yn-1-yl)-1H-indole-2-carboxamide]	50 to 500	++ (++=30-70%)	50 to 500	30 to 70		
CC(C)(C)OC(=O)N1C2CCC1CN(CC#Cc1nccc(N3CCCN(c4cc(-c5ccccc5O)nnc4N)CC3)n1)C2 [Compound P-358, tert-butyl 3-[3-(4-{4-[3-amino-6-(o-hydroxyphenyl)-4-pyridazinyl]-1,4-diazepan-1-y1}-2-pyrimidinyl)-2-propynyl]-3,8-diazabicyclo[3.2.1]octane-8-carboxylate]	500 to 5000	++ (++=30-70%)	500 to 5000	30 to 70		
C[C@@H]1CCN(c2cc(-c3ccccc3O)nnc2N)CCN1c1ccnc(C#CCN2C[C@@H]3C[C@H]2CO3)c1 [Compound P-404, 0-{5-[(R)-4-[2-(3-{(1S,4S)-2-oxa-5-azabicyclo[2.2.1]hept-5-yl}-1-propynyl)-4-pyridyl]-5-methyl-1,4-diazepan-1-yl]-6-amino-3-pyridazinyl}phenol]	50 to 500		50 to 500		++ (++=30-70%)	30 to 70
CCOc1cc(N2CCCN(c3cc(-c4ccccc4O)nnc3N)CC2)nc(C#CCNC(=O)c2cc3ncccn3n2)n1 [Compound P-124, N-(3-(4-(4-(3-amino-6-(2-hydroxyphenyl)pyridazin-4-yl)-1,4-diazepan-1-yl)-6-ethoxypyrimidin-2-yl)prop-2-yn-1-yl)pyrazolo[1,5-a]pyrimidine-2-carboxamide]	50 to 500	++ (++=30-70%)	50 to 500	> 70		
C[C@@H]1CN(c2ccnc(C#CCNC(=O)c3cc4ncccn4n3)n2)C[C@@H](C)N1c1cc(-c2ccccc2O)nnc1N [Compound P-82, N-(3-(4-((3R,5R)-4-(3-amino-6-(2-hydroxyphenyl)pyridazin-4-yl)-3,5-dimethylpiperazin-1-yl)pyrimidin-2-yl)prop-2-yn-1-yl)pyrazolo[1,5-a]pyrimidine-2-carboxamide]	500 to 5000	+ (+=<30%)	500 to 5000	< 30		
C[C@@H]1CCN(c2cc(-c3ccccc3O)nnc2N)CCN1c1ccnc(/C=C/CN(C)C)n1 [Compound P-218, o-{5-[(R)-4-{2-[(E)-3-(dimethylamino)-1-propenyl]-4-pyrimidinyl}-5-methyl-1,4-diazepan-1-yl]-6-amino-3-pyridazinyl}phenol]	50 to 500	+++ (+++=>70%)	50 to 500	30 to 70		
Cn1nc(C(=O)NCC#Cc2nccc(N3CCN(c4cc(-c5ccccc5O)nnc4N)CC3)n2)cc1C1CC1 [Compound P-6, N-[3-(4-{4-[3-amino-6-(2-hydroxyphenyl)pyridazin-4-yl]piperazin-1-y1}pyrimidin-2-yl)prop-2-yn-1-yl]-5-cyclopropyl-1-methyl-1H-pyrazole-3-carboxamide]	50 to 500	++ (++=30-70%)	< 50	30 to 70		
Nc1nnc(-c2ccccc2O)cc1N1CCCN(c2ccnc(C#CCN3CCC3)n2)CC1 [Compound P-308, 0-[6-amino-5-(4-{2-[3-(1-azetidinyl)-1-propynyl]-4-pyrimidinyl}-1,4-diazepan-1-yl)-3-pyridazinyl]phenol]	500 to 5000	++ (++=30-70%)	500 to 5000	30 to 70		
Cc1nn2ccn(CC#Cc3nccc(N4CCN(c5cnnc(-c6ccccc6O)c5)CC[C@H]4C)n3)c(=O)c2c1C [Compound P-235, 5-[3-(4-{ (R)-4-[6-(o-hydroxyphenyl)-4-pyridaziny1]-7-methyl-1,4-diazepan-1-yl}-2-pyrimidinyl)-2-propynyl]-2,3-dimethyl-1,5,7a-triaza-4(5H)-indenone]	50 to 500	+ (+=<30%)	500 to 5000	< 30		
CN(C)CC#Cc1cc(N2C[C@@H]3CN(c4cc(-c5ccccc5O)nnc4N)C[C@@H]3C2)ccn1 [Compound P-389, 0-{5-[(1R,5S)-7-{2-[3-(dimethylamino)-1-propynyl]-4-pyridyl}-3,7-diazabicyclo[3.3.0]oct-3-yl]-6-amino-3-pyridazinyl} phenol]	50 to 500		< 50		++ (++=30-70%)	30 to 70
N#Cc1ccc(N2C3CCC2CN(c2cnnc(-c4ccccc4O)c2)C3)nc1C#CCN1CC(F)(F)C1 [Compound P-403, 2-[3-(3,3-difluoro-1-azetidinyl)-1-propynyl]-6-{3-[6-(o-hydroxyphenyl)-4-pyridazinyl]-3,8-diazabicyclo[3.2.1]oct-8-yl} nicotinonitrile]	500 to 5000		> 5000			

The remaining lines, values ahead:

DC50 [1] [nM]	SMARCA2 % Degradation @ 1 μM ([1]; @ 1 μM)	DC50 [2] [nM]	inhibition at 1 µM ([2]; @ 1 μM) [%]	SMARCA2 % Degradation @ 1 μM ([1]; 1 μM)	inhibition at 1 µM ([2]; 1 μM) [%]	SMILES
50 to 500	+++ (+++=>70%)	50 to 500	30 to 70			C[C@@H]1CCN(c2cc(-c3ccccc3O)nnc2N)CCN1c1ccnc(C#CCN2CC3CC2(C)C3)n1 [Compound P-190, o-{5-[(R)-5-methyl-4-(2-{3-(1-methyl-2-azabicyclo[2.1.1]hex-2-yl)-1-propynyl}-4-pyrimidinyl)-1,4-diazepan-1-yl]-6-amino-3-pyridazinyl}phenol]
< 50		< 50		++ (++=30-70%)	< 30	CC(C#Cc1nc(N2CCN(c3cc(-c4ccccc4O)nnc3N)CC[C@H]2C)ccc1C#N)N(C)C (stereo partly drawn) [Compound P-407, 6-{(R)-4-[3-amino-6-(o-hydroxyphenyl)-4-pyridazinyl]-7-methyl-1,4-diazepan-1-yl}-2-[3-(dimethylamino)-1-butynyl]nicotinonitrile]
50 to 500	++ (++=30-70%)	50 to 500	30 to 70			C[C@@H]1CCN(c2cc(-c3ccccc3O)nnc2N)CCN1c1ccnc(C#CCN2CC(F)(F)C3(CCC3)C2)n1 [Compound P-209, o-{5-[(R)-4-(2-{3-(8,8-difluoro-6-aza-6-spiro[3.4]octyl)-1-propyny1}-4-pyrimidinyl)-5-methyl-1,4-diazepan-1-yl]-6-amino-3-pyridaziny1} phenol]
50 to 500	+++ (+++=>70%)	50 to 500	30 to 70			C[C@@H]1CCN(c2cc(-c3ccccc3O)nnc2N)CCN1c1ccnc(C#CC2CN(CC(F)F)C2)n1 [Compound P-174, o-{5-[(R)-4-(2-{2-[1-(2,2-difluoroethyl)-3-azetidinyl]ethynyl}-4-pyrimidinyl)-5-methyl-1,4-diazepan-1-y1]-6-amino-3-pyridazinyl}phenol]
50 to 500	+++ (+++=>70%)	50 to 500	> 70			CC(C)(C)OC(=O)N1CCCC1C#Cc1nccc(N2CCCN(c3cc(-c4ccccc4O)nnc3N)CC2)n1 (centres unmarked) [Compound P-348, tert-butyl 2-[2-(4-{4-[3-amino-6-(o-hydroxyphenyl)-4-pyridazinyl]-1,4-diazepan-1-y1}-2-pyrimidinyl)ethynyl]-1-pyrrolidinecarboxylate]
50 to 500	++ (++=30-70%)	50 to 500	30 to 70			Cn1ccc(NCC#Cc2nccc(N3CCCN(c4cc(-c5ccccc5O)nnc4N)CC3)n2)n1 [Compound P-21, 2-(6-amino-5-(4-(2-(3-((1-methyl-1H-pyrazol-3-yl)amino)prop-1-yn-1-yl)pyrimidin-4-yl)-1,4-diazepan-1-yl)pyridazin-3-yl)phenol]
< 50	+++ (+++=>70%)	< 50	> 70			C[C@H]1CCN(c2cc(-c3ccccc3O)nnc2N)CCN1c1ccnc(C#CCN(C)C)n1 [Compound P-250]
